Reference: patent US11529318B2, “Devices and methods for local delivery of tacrolimus” (UNIVERSITY OF PITTSBURGH—OF THE COMMONWEALTH SYSTEM OF …, priority 2017, dated 2022)

Columns and labels:
[1] = RGC viability analysis (calcein/propidium iodide live/dead kit); type: cell-based, rat; conditions: both sexes, Sprague-Dawley, rat, primary retinal ganglion cells (RGCs), 3 days in vitro
Description: (§1) Retinal ganglion cell isolation. RGCs were isolated from female and male postnatal day three (P3) Sprague-Dawley rat pups, purified by immunopanning, and cultured in NB-SATO media as previously described (Barres, Silverstein et al. 1988). The RGCs were seeded (5×10^3/cm^2) on cell culture plates coated with poly-D-lysine (70 kDa, 10 μg/mL; Sigma-Aldrich Corp., St. Louis, Mo., USA) and laminin (2 μg/mL, Sigma-Aldrich Corp.), and maintained at 37° C. in 10% CO2 for 3 days.
(§2) RGC viability analysis. To analyze RGC viability a calcein and propidium iodide based live/dead kit was used after 3 DIV per the manufacturer's instructions (Life Technologies, R37601). Briefly, RGC cultures were incubated in the live/dead reagent for 15 minutes at room temperature and five random fields per well were imaged at 20× using standard epi-fluorescence fluorescein and rhodamine filter sets (Zeiss, Axio Observer). Live and dead cells were analyzed using ImageJ (National Institutes of Health, Bethesda, Md., USA). All graphical data represents three independent experimental repeats.

[2] = test system: retinal ganglion cells (RGCs); assay: as above; type: cell-based, rat; conditions: for IC50: primary P3 rat RGCs, 3 days in vitro, 0.1 to 100 μM
Description: as §1, §2

[3] = Tacrolimus concentration in whole blood (Example 3); type: in vivo, Lewis rats; conditions: Lewis, rat, intraperitoneal, 1 mg/kg, read-out: trough tacrolimus blood levels
Description: Quantification of Tacrolimus by LC-Tandem Mass Spectrometry (LC-MS/MS). Fifty microliters of blood containing an unknown concentration of Tacrolimus was added to a conical centrifugation tube, followed by 200 μL of zinc sulfate heptahydrate (ZnSO4.7H2O) to precipitate plasma proteins. Five hundred microliters of an acetonitrile based solution containing a deuterated internal standard (ascomycin) at a concentration of 15 ng/ml was then added, and the mixture was vortexed at 3000 rpm for 2 minutes and centrifugated at 13,000 rpm for 3 minutes and the supernatants collected in LCMS vials for analysis.
Analysis was performed using a fully validated, reverse phased method for the detection of TAC in blood on a Waters micromass Quattro micro API mass spectrometer that is operated in positive electrospray ionization mode, utilizing multiple reaction monitoring, with an injection volume of 20 μL. The Waters 2795 Alliance Separations Module was equipped with a nova-pack® C18 column, 2.1×10 mm cartridge (Waters #186003523) heated to 55° C. Analytes were effectively separated using a gradient elution consisting of an aqueous mobile phase (95% H2O/5% MeOH) and an organic mobile phase (100% MeOH), at a flow rate of 0.6 mL per minute. Mobile phases also contained 0.1% formic acid (CH2O2) and 2 mM ammonium acetate.

[4] = test system: GAP-43 expression; assay: GAP-43 immunohistochemistry of optic nerve after optic nerve crush; type: in vivo, Sprague-Dawley rats; conditions: 14 days after optic nerve crush, systemic tacrolimus treatment
[5] = Tacrolimus concentration in infra orbital nerves, muscle and PEUU wraps (Example 3); type: in vivo, Lewis rats; conditions: Lewis, rat, daily intraperitoneal injections 1 mg/kg for 14 days
Description: Animals and Surgeries. All animals received care in compliance with the Institutional Animal Care and Use Committee and protocol approval from the University of Pittsburgh and followed guidelines from the Guide for the Care and Use of Laboratory Animals published by the U.S. National Institutes of Health. 10 Lewis rats (RT1) per group (treatment group, non-treatment group), aged 8-10 weeks, were anesthetized with 50 mg/kg intraperitoneal pentobarbital sodium and supplemented as necessary with 10 mg/kg injections. Sterile technique were utilized for all surgeries and a heating pad was used to maintain core animal temperature at 37° C.
The surgical procedure is described in depth in Xiao et al., 2016 and is briefly defined here. Proximal to the mystacial pad, an incision was made on the left hemiface distal to where the infraorbital nerve exits from the infraorbital foramen. Tissue was discretely dissected in order to expose the infraorbital branch of the trigeminal nerve and was transected using microscissors. […]
Quantification of Tacrolimus concentration in infra orbital nerves, muscle, and PEUU wraps. […] Drug concentration was measured by L-CMS/MS and the results were expressed as ng/g of tissue or wrap weight.
Quantification of Tacrolimus by LC-Tandem Mass Spectrometry (LC-MS/MS). […]

Q: What does the source list for `C=CC[C@@H]1/C=C(\C)C[C@H](C)C[C@H](OC)[C@H]2O[C@@](O)(C(=O)C(=O)N3CCCC[C@H]3C(=O)O[C@H](/C(C)=C/[C@@H]3CC[C@@H](O)[C@H](OC)C3)[C@H](C)[C@@H](O)CC1=O)[C@H](C)C[C@@H]2OC` [tacrolimus]?
A: viability at 3 days, 0.5 μM ([1]; 0.5 μM tacrolimus): 87.4%; viability at 3 days, 50 μM ([1]; 50 μM tacrolimus): 0%; increase in RGC viability versus EtOH vehicle (70%) ([2]; 0.5 μM tacrolimus): 17.4%; IC50 ([2]; Rattus norvegicus, 72 h): 24.2 µM; effect of dosage on neuron survival (live/dead study) ([2]; discussion statement): no significant effect; IC50 [2]: 25 µM; concentration at 24 h ([3]; 24 hours post systemic injection): 18.8 ± 14.8 ng/mL; concentration at 14 days ([3]; 14 days, systemically treated animals): 14 ± 10.6 ng/mL; GAP-43 expression in optic nerve [4]: no significant GAP-43 expression; concentration at 14 days ([5]; infra orbital nerves (IONs), read-out: tacrolimus concentration in IONs): ~196 ng/g; concentration at 14 days ([5]; muscle, read-out: tacrolimus concentration in muscle): ~172 ng/g
